These results are taken from US20080040819A1, “Methods of identifying agents for treatment of schizophrenia and related disorders” (Wyeth, priority 2006, published 2008).

Where two headings read alike, the source gives them in different places. Where only a bound is given, the exact number is not on record here.

For one series, the target named is dopamine D2 receptors (Mus musculus, UniProt P61168). The note with it: 1 mM dopamine, striatal membranes.
The next series concerns striatal dopamine. Put plainly: In vivo striatal microdialysis. The note with it: 3 mg/kg i.p., male and female GPR88 KO and WT mice, dialysates for 3 hours.
For series [1], the system named is GPR88 KO and WT mice. Put plainly: Amphetamine-stimulated locomotor hyperactivity. Format: in vivo. Conditions: 3 mg/kg i.p., 40-90 min. The protocol: The amphetamine-stimulated locomotor hyperactivity assay is another type of assay to model the neuropathological states in schizophrenia, similar to the hyperdopaminergia in the ventral striatum. To measure spontaneous activity and amphetamine-stimulated locomotor hyperactivity, the mice were individually placed in Opto-Veramax-3 monitor cages (Columbus Instruments, Columbus, Ohio) and allowed to habituate for 30 minutes with room light and white noise on. After habituation, each mouse was injected with amphetamine (AMPH, 3 mg/kg) in the intraperitoneum. During the first 30 minutes, the spontaneous activity was recorded every 10 minutes. After amphetamine administration, amphetamine-stimulated locomotor hyperactivity was measured every 10 minutes over a 60 minutes time span by the activity monitor. Accuscan Versamax and Versadat software (Columbus Instruments, Columbus, Ohio) were used to convert the infrared beam breaks into horizontal activity counts. […] Males and females were analyzed separately.

The test system of series [2] is GPR88 KO and WT mice. Put plainly: Phencyclidine-stimulated locomotor hyperactivity. Format: in vivo.
Series [3] has as its target T1, striatal dopamine D2 receptors (Mus musculus, UniProt P61168).
T1 construct: from tissue; host or cells: mouse striatum (membrane preparation / homogenate)
Put plainly: [^3H]spiperone binding to striatal membrane preparations. Details: species or system mice. Conditions: pool of 10. The protocol:
Striata from 10 mice (male and female, WT & GPR88 KO) were pooled and homogenized in a motor-driven POLYTRON™ homogenizer (Kinematica AG, Newark, N.J.) at setting six for 10 seconds in 3 mL per 100 mg of wet tissue in 50 mM Tris-HCl buffer, pH 7.4, containing 120 mM NaCl, 5 mM KCl, 1.5 mM CaCl2, 4 mM MgCl2, and 1 mM EDTA. […] The binding of each concentration of radioligand was determined in duplicate. Incubations were carried out at room temperature for 120 minutes. The final concentration of the membrane protein in each binding assay was approximately 70 μg/ml. Butaclamol (+), (10 μM), (Sigma-Aldrich, St. Louis, Mo.) was used to define the nonspecific binding. The incubations were terminated by rapid filtration using a Wallac Tomtec harvester (Waltham, Mass.) and buffer-presoaked glass fiber filter mats (GF/B, Whatman Inc. Florham Park, N.J.). […] The radioactivity of the filters was then counted in a Wallac 1205 scintillation counter (Perkin Elmer Life and Analytical Sciences).
The estimates of Bmax (the number of available binding receptors) and Kd (the dissociation constant) were calculated by fitting the specific binding data with nonlinear regression using GraphPad PRISM™ data analysis software (GraphPad Software, San Diego, Calif.).

Series [4] has as its system GPR88 KO and WT mice. Put plainly: Haloperidol-induced catalepsy. It is filed as in vivo. Conditions: 1 mg/kg i.p., 30-120 minutes, male and female mice. The method, then:
Maintenance of this position was considered catalepsy. […] Males and females were analyzed separately.

In series [5] the test system is GPR88 KO and WT mice. Put plainly: Antipsychotic block of apomorphine-induced climbing and stereotypy. It is filed as in vivo. The method, then: Observation and scoring for climbing and stereotypy were performed as described in Example 6. […] Males and females were analyzed separately. […] For graphical representation, the data was normalized to the amount of climbing and stereotypy shown by the vehicle treated control group.

In series [6] the test system is GPR88 KO and WT mice. Conditions: 0.54 mg/kg i.p. 30 minutes before testing, PPI averaged across 3 dB levels.
Protocol: To detect potential phenotypic deficits in the GPR88 knockout mice, they were first evaluated for startle habituation. In brief, mice were tested using the SR-LAB (San Diego Instruments, San Diego, Calif.) system. Each system consists of a ventilated sound attenuated chamber containing a stabilimeter consisting of a Plexiglas cylinder (12.5 cm length, 3.5 cm diameter) mounted on a Plexiglas frame. Acoustic stimuli were delivered through a speaker mounted in the enclosure ceiling, that was 27 cm above the cylinder. Startle responses were transduced by a piezoelectric accelerometer mounted beneath the frame. Output signals were digitized and rectified as consecutive 1-millisecond (msec) readings (a total of 65 were recorded, and startle response was expressed as an averaged response across these samples) on a computer using the San Diego Instrument software. Mice were placed individually in the chamber for a 5-minute acclimation period at a background noise level of 64 dB.
Prepulse inhibition was measured immediately following the startle sensitivity test. […] Percentage prepulse inhibition was calculated as 100 minus the ratio of the average startle response observed at each prepulse+pulse trial relative to the pulse alone stimulus, times 100. The percentage prepulse at across dB levels was analyzed by repeated-measures ANOVA. […] Males and females were analyzed separately. […]
The test system of series [7] is GPR88 KO and WT mice. Put plainly: Apomorphine-induced climbing and stereotypy. Format: in vivo. The method, then: The GPR88 KO and WT mice were acclimated to a wire cage (cylindrical ½″×½″ mesh with the dimensions of 4½″ d×5½″ h) for at least 2 hours before testing to allow proper habituation. […] (+ present, − absent). Readings were repeated every 5 minutes during a 30-minute test session.
The behavioral assessment was conducted over three conditions in succession: (1) an evaluation of the response to a subcutaneous vehicle (0.25% TWEEN® 80) injection to establish a baseline; (2) followed by an evaluation of the response to a dose of 0.3 mg/kg subcutaneous apomorphine injection; (3) followed by an evaluation of the response to 1 mg/kg subcutaneous apomorphine injection. Behavioral observation began 5 minutes after each injection. Vehicle was given at T0 minutes with observational assessment from T5-T35 minutes and habituation followed from T35-T65 minutes.
At T65, the 0.3 mg/kg dose of apomorphine was administered. Behavioral observation for the 0.3 mg/kg dose of apomorphine was from T70-T100, followed by another habituation from T100-T130 minutes.
At T130 min, the 1.0 mg/kg dose of apomorphine was administered and then the mice were scored from T135-T165 min. For each subject, the climbing scores were totaled for each observational period (maximum=12 per animal). Stereotypy scores were also summed up (maximum=6 per animal). […] Males and females were analyzed separately.

Where [8] appears, read: GPR88 KO and WT female mice, 0.3 mg/kg haloperidol.
Setting [9] is: male WT mice, 0.54 and 1.0 mg/kg haloperidol.

T1 sequence (P61168 whole entry): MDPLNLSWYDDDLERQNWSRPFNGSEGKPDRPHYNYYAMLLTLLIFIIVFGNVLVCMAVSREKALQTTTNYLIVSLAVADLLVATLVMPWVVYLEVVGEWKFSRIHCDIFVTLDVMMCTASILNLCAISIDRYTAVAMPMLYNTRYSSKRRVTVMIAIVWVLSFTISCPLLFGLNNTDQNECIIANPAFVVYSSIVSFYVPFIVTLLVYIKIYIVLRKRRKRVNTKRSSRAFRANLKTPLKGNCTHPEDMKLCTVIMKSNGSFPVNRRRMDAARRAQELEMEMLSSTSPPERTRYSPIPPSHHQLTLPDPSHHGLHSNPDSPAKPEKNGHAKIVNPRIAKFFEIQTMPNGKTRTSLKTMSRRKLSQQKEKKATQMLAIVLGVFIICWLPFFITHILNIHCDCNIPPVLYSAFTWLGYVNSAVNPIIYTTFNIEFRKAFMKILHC
Sequence of dopamine D2 receptors (P61168 whole entry): as above

In the case of `NCCc1ccc(O)c(O)c1` [dopamine], at dopamine D2 receptors, the “stimulation of [^35S]GTPγS binding in GPR88 KO mice relative to WT mice” value is reported as “twice”.

`CC(N)Cc1ccccc1` (centres unmarked) [amphetamine]: the “striatal extracellular dopamine after amphetamine” value in the series with striatal dopamine is “significant and equal increase in dopamine”. Besides, the “locomotor activity after amphetamine administration” value was “significant increase in activity” in the series with GPR88 KO and WT mice [1] (GPR88 KO male mice); “significant increase in activity” in the series on GPR88 KO and WT mice [1] (female mice).

In the case of `c1ccc(C2(N3CCCCC3)CCCCC2)cc1` [PCP, phencyclidine], the PCP-stimulated locomotor activity result in the series on GPR88 KO and WT mice [2] (female WT and GPR88 KO mice, 1.0 mg/kg) is given as “Neither of the genotypes responded”; with GPR88 KO and WT mice [2] (female WT and GPR88 KO mice, 1.7 mg/kg or 3.0 mg/kg) it was “increased locomotor activity”; in the series on GPR88 KO and WT mice [2] (male WT and GPR88 KO mice, highest dose 3 mg/kg i.p.), “increased locomotor activity”; in the series on GPR88 KO and WT mice [2] (male WT and GPR88 KO mice, lower doses (1.0, 1.7 mg/kg)), “Neither of the genotypes responded”.

For `O=C(CCCN1CCC2(CC1)C(=O)NCN2c1ccccc1)c1ccc(F)cc1` [[^3H]spiperone], the “Bmax (number of available binding receptors)” value in series [3] (striatal membranes of GPR88 KO mice) stood at 1.83 pmol/mg; in series [3] (striatal membranes of WT mice), 1.34 pmoles/mg protein.

`O=C(CCCN1CCC(O)(c2ccc(Cl)cc2)CC1)c1ccc(F)cc1` [haloperidol]: the “catalepsy (percentage of maximum possible catalepsy), GPR88 KO versus WT” value in the series with GPR88 KO and WT mice [4] is on record as “equivalent levels of catalepsy”. Besides, the “block of apomorphine-induced climbing” value in the series with GPR88 KO and WT mice [5] (setting [8]) is on record as “full block of climbing”; with GPR88 KO and WT mice [5] (male GPR88 KO mice, 1.0 mg/kg haloperidol) it was “full block of climbing”; with GPR88 KO and WT mice [5] (setting [9]), “full block of climbing”. In addition, the “block of apomorphine-induced stereotypy” value is “full block of stereotypy” with GPR88 KO and WT mice [5] (setting [8]); “full block of stereotypy” with GPR88 KO and WT mice [5] (setting [9]). Besides, the “minimal effective dose, apomorphine-induced climbing and stereotypy assay (summary)” value in the series with GPR88 KO and WT mice [5] (GPR88 KO male mice) is given as 0.54 mg/kg; in the series on GPR88 KO and WT mice [5] (WT male mice), less than 0.3 mg/kg.

For the compound `Cc1nc2n(c(=O)c1CCN1CCC(c3noc4cc(F)ccc34)CC1)CCCC2` [risperidone], the “percentage prepulse inhibition (PPI), treatment versus vehicle” value in the series on GPR88 KO and WT mice [6] (male GPR88 KO mice) is recorded as “increasing PPI over untreated”; in the series on GPR88 KO and WT mice [6] (male WT mice), “increasing PPI over untreated”.

Turning to `CN1CCc2cccc3c2[C@H]1Cc1ccc(O)c(O)c1-3` [apomorphine], the “apomorphine-induced climbing scores, dose effect” value in the series on GPR88 KO and WT mice [7] (female GPR88 KO and WT mice, 1 mg/kg s.c.) is “the most climbing”; in the series with GPR88 KO and WT mice [7] (male GPR88 KO and WT mice, vehicle, 0.3 and 1 mg/kg s.c.), “climbing increasing with the dose”. In the series with GPR88 KO and WT mice [7] (male GPR88 KO and WT mice, 1 mg/kg s.c.), the “apomorphine-induced stereotypy scores, dose effect” value is recorded as “maximal stereotypy”.
